Experiments:
Experiment in all cases: KINOMEscan competition binding
Conditions in all cases: compound 10.0 µM
[1] = target: AURKB (human) (UniProt Q96GD4)
[2] = target: CAMK2D (human) (UniProt Q13557)
[3] = target: CDK3 (human) (UniProt Q00526)
[4] = target: CDK4 CCND1 (human) (UniProt P11802+P24385)
[5] = target: CIT (human) (UniProt O14578)
[6] = system: CPK1 (P.falciparum)
[7] = target: CSNK1G1 (human) (UniProt Q9HCP0)
[8] = target: DAPK1 (human) (UniProt P53355)
[9] = target: EGFR (human) (UniProt P00533)
[10] = target: EPHB6 (human) (UniProt O15197)
[11] = target: GAK (human) (UniProt O14976)
[12] = target: JAK1 JH1 catalytic (human) (UniProt P23458)
[13] = target: LRRK2 (human) (UniProt Q5S007)
[14] = target: MAP2K7 (human) (UniProt O14733)
[15] = target: MAP3K6 (human) (UniProt O95382)
[16] = target: MAP4K5 (human) (UniProt Q9Y4K4)
[17] = target: MAPK12 (human) (UniProt P53778)
[18] = target: MKNK2 (human) (UniProt Q9HBH9)
[19] = target: NEK11 (human) (UniProt Q8NG66)
[20] = target: NEK3 (human) (UniProt P51956)
[21] = target: NEK4 (human) (UniProt P51957)
[22] = target: NEK5 (human) (UniProt Q6P3R8)
[23] = target: PDGFRA (human) (UniProt P16234)
[24] = target: PDPK1 (human) (UniProt O15530)
[25] = system: PIK3CA (human), P42336 [H1047L]
[26] = system: PIK3CA (human), P42336 [M1043I]
[27] = target: PIK3CB (human) (UniProt P42338)
[28] = target: PRKCE (human) (UniProt Q02156)
[29] = target: PRKD2 (human) (UniProt Q9BZL6)
[30] = target: PTK2B (human) (UniProt Q14289)
[31] = system: RET (human), P07949 [V804L]
[32] = target: RIOK3 (human) (UniProt O14730)
[33] = target: SIK1 (human) (UniProt P57059)
[34] = target: STK10 (human) (UniProt O94804)
[35] = target: STK36 (human) (UniProt Q9NRP7)
[36] = target: TYK2 JH2 pseudokinase (human) (UniProt P29597)
[37] = target: ULK1 (human) (UniProt O75385)
[38] = target: ULK3 (human) (UniProt Q6PHR2)
[39] = target: VRK2 (human) (UniProt Q86Y07)
[40] = target: WEE1 (human) (UniProt P30291)

Chain of ULK3 (human) (Q6PHR2 whole entry, looked up): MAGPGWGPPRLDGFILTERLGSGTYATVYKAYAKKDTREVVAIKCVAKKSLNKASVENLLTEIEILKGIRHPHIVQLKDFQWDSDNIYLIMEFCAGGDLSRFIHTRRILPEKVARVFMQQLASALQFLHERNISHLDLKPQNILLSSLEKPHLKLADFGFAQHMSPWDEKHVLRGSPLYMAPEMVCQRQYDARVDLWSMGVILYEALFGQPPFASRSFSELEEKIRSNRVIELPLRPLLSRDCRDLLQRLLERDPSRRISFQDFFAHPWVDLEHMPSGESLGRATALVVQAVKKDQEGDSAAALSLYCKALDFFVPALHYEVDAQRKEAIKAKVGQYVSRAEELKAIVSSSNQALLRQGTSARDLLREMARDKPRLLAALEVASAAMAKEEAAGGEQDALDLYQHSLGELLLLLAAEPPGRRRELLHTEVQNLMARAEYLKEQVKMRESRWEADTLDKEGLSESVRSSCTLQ
Chain of NEK3 (human) (P51956 whole entry, looked up): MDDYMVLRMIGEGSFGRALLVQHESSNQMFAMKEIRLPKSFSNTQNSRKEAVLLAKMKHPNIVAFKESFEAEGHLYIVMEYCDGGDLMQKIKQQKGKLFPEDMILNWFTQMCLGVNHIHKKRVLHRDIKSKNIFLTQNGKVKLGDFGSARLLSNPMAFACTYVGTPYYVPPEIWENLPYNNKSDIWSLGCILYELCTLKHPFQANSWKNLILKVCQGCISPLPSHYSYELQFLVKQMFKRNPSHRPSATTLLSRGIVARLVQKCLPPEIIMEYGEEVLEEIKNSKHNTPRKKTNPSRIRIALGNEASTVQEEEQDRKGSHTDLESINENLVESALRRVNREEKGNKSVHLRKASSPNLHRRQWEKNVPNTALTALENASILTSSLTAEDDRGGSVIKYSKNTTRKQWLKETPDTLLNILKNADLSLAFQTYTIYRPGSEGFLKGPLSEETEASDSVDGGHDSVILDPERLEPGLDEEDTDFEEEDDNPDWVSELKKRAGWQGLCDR
Chain of DAPK1 (human) (P53355 whole entry, looked up): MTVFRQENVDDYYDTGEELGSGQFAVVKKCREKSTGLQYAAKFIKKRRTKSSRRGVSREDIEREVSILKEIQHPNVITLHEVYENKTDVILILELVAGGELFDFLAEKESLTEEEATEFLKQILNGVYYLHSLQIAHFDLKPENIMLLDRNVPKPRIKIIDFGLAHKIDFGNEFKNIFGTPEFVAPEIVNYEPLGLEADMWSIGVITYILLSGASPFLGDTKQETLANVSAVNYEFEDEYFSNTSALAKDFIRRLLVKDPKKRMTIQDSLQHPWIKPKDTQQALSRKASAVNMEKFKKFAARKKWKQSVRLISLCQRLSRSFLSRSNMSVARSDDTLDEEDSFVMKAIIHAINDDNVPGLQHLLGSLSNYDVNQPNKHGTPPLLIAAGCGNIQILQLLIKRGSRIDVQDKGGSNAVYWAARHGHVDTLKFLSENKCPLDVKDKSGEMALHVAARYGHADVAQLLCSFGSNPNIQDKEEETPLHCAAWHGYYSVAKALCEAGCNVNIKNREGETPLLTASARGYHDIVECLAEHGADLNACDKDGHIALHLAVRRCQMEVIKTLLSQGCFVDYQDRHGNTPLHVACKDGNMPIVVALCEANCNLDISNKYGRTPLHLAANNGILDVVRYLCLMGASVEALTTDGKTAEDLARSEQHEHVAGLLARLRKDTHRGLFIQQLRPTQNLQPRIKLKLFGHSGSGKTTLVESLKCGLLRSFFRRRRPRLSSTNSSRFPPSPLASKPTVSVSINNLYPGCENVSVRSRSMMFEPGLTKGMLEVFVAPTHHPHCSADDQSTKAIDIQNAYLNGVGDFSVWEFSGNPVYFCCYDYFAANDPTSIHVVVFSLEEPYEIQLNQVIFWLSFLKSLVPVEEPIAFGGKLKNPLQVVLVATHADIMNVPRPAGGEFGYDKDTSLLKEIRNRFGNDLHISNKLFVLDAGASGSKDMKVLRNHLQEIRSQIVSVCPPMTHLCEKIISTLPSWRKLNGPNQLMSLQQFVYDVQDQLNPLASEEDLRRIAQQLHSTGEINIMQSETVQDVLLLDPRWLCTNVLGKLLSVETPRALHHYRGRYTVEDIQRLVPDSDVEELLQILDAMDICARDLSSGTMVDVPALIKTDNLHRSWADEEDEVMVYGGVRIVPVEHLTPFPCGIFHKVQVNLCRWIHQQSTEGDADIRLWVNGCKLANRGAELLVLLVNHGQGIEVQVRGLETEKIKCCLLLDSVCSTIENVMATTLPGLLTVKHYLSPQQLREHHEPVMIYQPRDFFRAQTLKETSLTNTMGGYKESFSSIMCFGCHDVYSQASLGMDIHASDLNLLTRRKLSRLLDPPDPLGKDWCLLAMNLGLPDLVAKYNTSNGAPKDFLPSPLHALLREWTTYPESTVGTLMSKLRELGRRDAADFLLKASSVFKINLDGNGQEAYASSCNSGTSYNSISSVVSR
Chain of MAPK12 (human) (P53778 whole entry, looked up): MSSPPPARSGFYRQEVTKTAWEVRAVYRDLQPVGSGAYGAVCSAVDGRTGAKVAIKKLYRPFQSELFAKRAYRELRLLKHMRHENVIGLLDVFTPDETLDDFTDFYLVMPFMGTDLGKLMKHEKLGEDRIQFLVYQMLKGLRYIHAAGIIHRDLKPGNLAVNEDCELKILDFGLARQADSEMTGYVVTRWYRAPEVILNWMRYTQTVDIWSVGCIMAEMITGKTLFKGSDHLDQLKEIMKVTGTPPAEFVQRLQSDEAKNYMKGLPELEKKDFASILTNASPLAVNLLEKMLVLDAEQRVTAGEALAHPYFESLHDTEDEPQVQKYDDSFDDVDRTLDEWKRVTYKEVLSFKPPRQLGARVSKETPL
Chain of MKNK2 (human) (Q9HBH9 whole entry, looked up): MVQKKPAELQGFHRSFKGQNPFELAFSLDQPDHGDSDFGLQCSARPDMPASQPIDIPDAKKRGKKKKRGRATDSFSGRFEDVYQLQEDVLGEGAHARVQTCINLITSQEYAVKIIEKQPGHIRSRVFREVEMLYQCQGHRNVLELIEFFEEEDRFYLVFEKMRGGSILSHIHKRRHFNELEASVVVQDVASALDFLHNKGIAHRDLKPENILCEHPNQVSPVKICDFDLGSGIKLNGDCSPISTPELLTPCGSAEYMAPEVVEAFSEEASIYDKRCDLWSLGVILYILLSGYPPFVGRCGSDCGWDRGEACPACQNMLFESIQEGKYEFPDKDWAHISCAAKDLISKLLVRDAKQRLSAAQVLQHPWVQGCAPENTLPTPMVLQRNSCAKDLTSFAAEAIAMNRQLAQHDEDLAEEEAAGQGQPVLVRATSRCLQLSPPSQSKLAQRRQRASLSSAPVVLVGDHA
Chain of NEK5 (human) (Q6P3R8 whole entry, looked up): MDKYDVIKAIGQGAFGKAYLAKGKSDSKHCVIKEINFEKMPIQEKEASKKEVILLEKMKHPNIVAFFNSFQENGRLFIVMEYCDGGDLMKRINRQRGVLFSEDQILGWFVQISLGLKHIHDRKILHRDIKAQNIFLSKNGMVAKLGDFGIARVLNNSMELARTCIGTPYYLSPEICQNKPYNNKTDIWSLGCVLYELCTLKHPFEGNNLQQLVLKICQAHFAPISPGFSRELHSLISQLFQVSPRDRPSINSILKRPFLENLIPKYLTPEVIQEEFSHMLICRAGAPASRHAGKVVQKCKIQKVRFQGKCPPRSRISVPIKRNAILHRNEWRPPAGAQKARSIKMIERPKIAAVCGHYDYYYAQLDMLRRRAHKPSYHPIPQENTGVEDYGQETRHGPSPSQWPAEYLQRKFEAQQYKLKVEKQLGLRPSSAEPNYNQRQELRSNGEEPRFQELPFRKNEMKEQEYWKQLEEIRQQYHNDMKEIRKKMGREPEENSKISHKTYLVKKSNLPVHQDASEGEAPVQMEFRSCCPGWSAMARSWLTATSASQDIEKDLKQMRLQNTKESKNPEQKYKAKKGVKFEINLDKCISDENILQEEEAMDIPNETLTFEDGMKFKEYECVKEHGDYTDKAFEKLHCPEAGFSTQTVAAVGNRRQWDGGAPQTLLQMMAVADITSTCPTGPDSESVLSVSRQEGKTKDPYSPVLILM
Chain of RIOK3 (human) (O14730 whole entry, looked up): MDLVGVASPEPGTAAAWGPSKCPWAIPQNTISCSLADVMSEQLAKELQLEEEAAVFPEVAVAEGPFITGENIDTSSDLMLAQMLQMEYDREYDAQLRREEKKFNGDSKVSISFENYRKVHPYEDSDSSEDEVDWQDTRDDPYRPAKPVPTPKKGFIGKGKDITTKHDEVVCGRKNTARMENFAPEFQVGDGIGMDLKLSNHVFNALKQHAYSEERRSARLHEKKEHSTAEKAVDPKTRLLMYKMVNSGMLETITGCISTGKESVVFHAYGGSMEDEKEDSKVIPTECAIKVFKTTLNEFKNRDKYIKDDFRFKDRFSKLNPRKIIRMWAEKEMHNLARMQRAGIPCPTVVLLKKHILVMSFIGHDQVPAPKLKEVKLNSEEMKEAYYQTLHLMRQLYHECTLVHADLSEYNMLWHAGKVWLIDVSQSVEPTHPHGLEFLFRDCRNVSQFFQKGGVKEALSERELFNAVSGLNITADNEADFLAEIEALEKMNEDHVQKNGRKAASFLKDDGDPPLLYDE
Chain of PDPK1 (human) (O15530 whole entry, looked up): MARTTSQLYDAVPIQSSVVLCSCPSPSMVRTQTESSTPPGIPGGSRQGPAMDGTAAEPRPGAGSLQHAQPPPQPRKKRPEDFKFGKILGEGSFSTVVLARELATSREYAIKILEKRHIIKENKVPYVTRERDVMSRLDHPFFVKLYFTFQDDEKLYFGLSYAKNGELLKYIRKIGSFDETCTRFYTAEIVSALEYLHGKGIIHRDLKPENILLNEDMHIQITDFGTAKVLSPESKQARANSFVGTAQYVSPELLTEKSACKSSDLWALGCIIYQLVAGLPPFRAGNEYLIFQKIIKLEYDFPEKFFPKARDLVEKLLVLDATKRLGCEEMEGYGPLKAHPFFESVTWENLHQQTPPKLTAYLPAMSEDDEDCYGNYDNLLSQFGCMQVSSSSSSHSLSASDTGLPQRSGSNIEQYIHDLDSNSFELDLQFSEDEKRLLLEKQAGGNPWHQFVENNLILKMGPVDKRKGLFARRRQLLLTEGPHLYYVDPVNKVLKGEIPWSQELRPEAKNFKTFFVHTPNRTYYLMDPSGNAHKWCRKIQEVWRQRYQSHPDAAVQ

| Compound | kinase still bound, per cent of control [1] | kinase still bound, per cent of control [2] | kinase still bound, per cent of control [3] | kinase still bound, per cent of control [4] | kinase still bound, per cent of control [5] | kinase still bound, per cent of control [6] | kinase still bound, per cent of control [7] | kinase still bound, per cent of control [8] | kinase still bound, per cent of control [9] | kinase still bound, per cent of control [10] | kinase still bound, per cent of control [11] | kinase still bound, per cent of control [12] | kinase still bound, per cent of control [13] | kinase still bound, per cent of control [14] | kinase still bound, per cent of control [15] | kinase still bound, per cent of control [16] | kinase still bound, per cent of control [17] | kinase still bound, per cent of control [18] | kinase still bound, per cent of control [19] | kinase still bound, per cent of control [20] | further results |
| --- | --- | --- | --- | --- | --- | --- | --- | --- | --- | --- | --- | --- | --- | --- | --- | --- | --- | --- | --- | --- | --- |
| COc1cc2ncnc(Nc3cccc(Cl)c3)c2cc1OC | 40% | 61% | 100% | 90% | 7.4% | 34% | 100% | 53% | 0.05% | 16% | 0% | 84% | 79% | 73% | 43% | 26% | 100% | 3.9% | 99% | 78% | kinase still bound, per cent of control [21]: 76%; kinase still bound, per cent of control [22]: 93%; kinase still bound, per cent of control [23]: 29%; kinase still bound, per cent of control [24]: 80%; kinase still bound, per cent of control [25]: 56%; kinase still bound, per cent of control [26]: 76%; kinase still bound, per cent of control [27]: 47%; kinase still bound, per cent of control [28]: 75%; kinase still bound, per cent of control [29]: 86%; kinase still bound, per cent of control [30]: 86%; kinase still bound, per cent of control [31]: 100%; kinase still bound, per cent of control [32]: 78%; kinase still bound, per cent of control [33]: 100%; kinase still bound, per cent of control [34]: 1.5%; kinase still bound, per cent of control [35]: 54%; kinase still bound, per cent of control [36]: 55%; kinase still bound, per cent of control [37]: 75%; kinase still bound, per cent of control [38]: 24%; kinase still bound, per cent of control [39]: 35%; kinase still bound, per cent of control [40]: 93% |
| N#Cc1cc(-c2ccnc(Nc3ccc(-n4cnc(-c5cccnc5)n4)cc3)n2)cc(N2CCOCC2)c1 | 57% | 24% | 45% | 100% | 0.9% | 48% | 92% | 60% | 71% | 14% | 22% | 59% | 94% | 100% | 88% | 27% | 80% | 34% | 100% | 0.75% | kinase still bound, per cent of control [21]: 100%; kinase still bound, per cent of control [22]: 1.4%; kinase still bound, per cent of control [23]: 1.2%; kinase still bound, per cent of control [24]: 100%; kinase still bound, per cent of control [25]: 100%; kinase still bound, per cent of control [26]: 100%; kinase still bound, per cent of control [27]: 100%; kinase still bound, per cent of control [28]: 100%; kinase still bound, per cent of control [29]: 93%; kinase still bound, per cent of control [30]: 20%; kinase still bound, per cent of control [31]: 100%; kinase still bound, per cent of control [32]: 3.2%; kinase still bound, per cent of control [33]: 73%; kinase still bound, per cent of control [34]: 39%; kinase still bound, per cent of control [35]: 15%; kinase still bound, per cent of control [36]: 12%; kinase still bound, per cent of control [37]: 37%; kinase still bound, per cent of control [38]: 6%; kinase still bound, per cent of control [39]: 100%; kinase still bound, per cent of control [40]: 82% |
| O=c1[nH]c2ccccc2n1C1CCN(Cc2ccc(-c3nc4cc5[nH]cnc5cc4nc3-c3ccccc3)cc2)CC1 | 91% | 100% | 100% | 100% | 47% | 40% | 100% | 100% | 65% | 69% | 88% | 100% | 100% | 80% | 100% | 64% | 98% | 81% | 100% | 84% | kinase still bound, per cent of control [21]: 93%; kinase still bound, per cent of control [22]: 97%; kinase still bound, per cent of control [23]: 83%; kinase still bound, per cent of control [24]: 93%; kinase still bound, per cent of control [25]: 69%; kinase still bound, per cent of control [26]: 100%; kinase still bound, per cent of control [27]: 6.7%; kinase still bound, per cent of control [28]: 100%; kinase still bound, per cent of control [29]: 95%; kinase still bound, per cent of control [30]: 91%; kinase still bound, per cent of control [31]: 85%; kinase still bound, per cent of control [32]: 64%; kinase still bound, per cent of control [33]: 100%; kinase still bound, per cent of control [34]: 65%; kinase still bound, per cent of control [35]: 74%; kinase still bound, per cent of control [36]: 66%; kinase still bound, per cent of control [37]: 78%; kinase still bound, per cent of control [38]: 80%; kinase still bound, per cent of control [39]: 76%; kinase still bound, per cent of control [40]: 99% |

Reference: the kinase profiling compilation of Christmann-Franck et al. (2016)
